Laboratory results reported in US10508107B2, “Morpholine derivative” (Hoffmann-La Roche Inc., priority 2016, dated 2019).
Like-named read-outs stand apart in the source and are kept apart here.

Columns and labels:
hERG potassium channel = hERG potassium channel (Homo sapiens (Human), UniProt Q12809); assay: hERG whole-cell patch-clamp in stably transfected CHO cells; assay type: cell-based; details: for selectivity ratio: pH 7.4, hERG IC20 / hTAAR1 EC50, read-out: hERG selectivity ratio versus hTAAR1 EC50; for IC50: patch-clamp, CHO cells, 36±1° C.
Method: The whole-cell patch-clamp technique was used to investigate the effects of the test items on hERG (human-ether-a-go-go related gene) potassium channels in stably transfected CHO cells near physiological temperature (36±1° C.). The effects of compounds on hERG K^+-current parameters were evaluated at 4 concentrations (0.3-3-30-300 μM) in at least 3 CHO cells stably expressing the hERG channel. For electrophysiological measurements cells were seeded onto 35 mm sterile culture dishes containing 2 ml culture medium without Hygromycin B. Cells were cultivated at a density that enabled single cells (without visible connections to neighbouring cells) to be measured. Cells were incubated at 37° C. in a humidified atmosphere with 5% CO2 (rel. humidity about 95%). The cells were continuously maintained in and passaged in sterile culture flasks containing nutrient mixture F-12 (DMEM/F-12 with L-Glutamine) supplemented with 10% foetal bovine serum and 10% penicillin/streptomycin solution. […] The 35 mm culture dishes upon which cells were seeded at a density allowing single cells to be recorded were placed on the dish holder of the microscope and continuously perfused (at approximately 1 ml/min) with the bath solution (sodium chloride 150 mM, potassium chloride 4 mM, calcium chloride 1.2 mM, magnesium chloride 1 mM, HEPES 10 mM, pH (NaOH) 7.4) at near physiological temperature (36±1° C.). After formation of a Gigaohm seal between the patch electrodes and individual hERG stably transfected CHO cells (pipette resistance range: 2.0 MΩ-7.0 Mω; seal resistance range: >1 Gω) the cell membrane across the pipette tip was ruptured to assure electrical access to the cell interior (whole-cell patch-configuration). In case the quality of the seal was poor, the process of seal formation was repeated with a different cell and a new pipette. […] This voltage protocol was run at least 10 times at intervals of 10 s. If current density was judged to be too low for measurement, another cell was recorded. […] During wash-in of the test item the voltage protocol indicated above was run continuously again at 10 s intervals until the steady-state level of block was reached. The four test item concentrations of the compound were applied sequentially to 3 cells in a cumulative manner. […] Based on the IC50 value the IC20 was estimated. Each concentration of the test item was analyzed in three experiments (n=3).

human DAT = human DAT (Homo sapiens (Human), UniProt Q01959); assay: Binding to dopamine transporter (DAT) in vitro, [3H]-WIN35,428 SPA; details: for Ki: [3H]-WIN35,428 radioligand; for DAT selectivity ratio versus hTAAR1 EC50: DAT Ki / hTAAR1 EC50
Method: Binding to dopamine transporter (DAT) in vitro. Human embryonic kidney (HEK) 293 cells (Invitrogen, Zug, Switzerland) stably transfected with human DAT were cultured. The cells were collected and washed three times with phosphate-buffered saline (PBS). The pellets were frozen at −80° C. The pellets were then resuspended in 400 ml of 20 mM HEPES-NaOH, pH 7.4, that contained 10 mM EDTA at 4° C. After homogenization with a Polytron (Kinematica, Lucerne,
Switzerland) at 10000 rotations per minute (rpm) for 15 s, the homogenates were centrifuged at 48000×g for 30 min at 4° C. Aliquots of the membrane stocks were frozen at −80° C. All assays were performed at least three times. The test compounds were diluted in […] of binding buffer (252 mM NaCl, 5.4 mM KCl, 20 mM Na2HPO4, 3.52 mM KH2PO4, pH 7.4) and 10 point dilution curves were made and transferred to 96-well white polystyrene assay plates (Sigma-Aldrich, Buchs, Switzerland). […] Twenty microliters of binding buffer alone in the assay plate defined the total binding, whereas binding in the presence of 10 μM indatraline defined nonspecific binding. Frozen DAT membrane stocks were thawed and resuspended to a concentration of approximately 0.04 mg protein/ml binding buffer (1:1 diluted in H2O) using a polytron tissue homogenizer. The membrane homogenates (40 μg/ml) were then lightly mixed for 5-30 min with polyvinyl toluene […] wheat germ agglutinin-coated scintillation proximity assay (WGASPA; Amersham Biosciences) beads at 7.7 mg beads/ml homogenate. One hundred thirty microliters of the membrane/bead mixture were added to each well of the assay plate that contained radioligand and test compounds (final volume in each well, 200 μl) to start the assay, which was incubated for approximately 2 h at room temperature with agitation. The assay plates were then counted in the PVT SPA counting mode of a Packard Topcount. […] Non-linear regression was used to fit the data to sigmoid curves and determine IC50 values for binding and uptake. Ki values for binding and uptake were calculated using the following Cheng-Prusoff equation: Ki=IC50/(1+[S]/Km).

human TAAR1 = human TAAR1 (Homo sapiens (Human), UniProt Q96RJ0); assay: cAMP functional assay in HEK293 cells expressing human TAAR1; assay type: cell-based; details: for hTAAR1 efficacy*: % agonist activity, β-phenylethylamine = 100% agonism; for EC50: cAMP, HEK293 cells expressing human TAAR1, read-out: hTAAR1 EC50
Method: For the construction of expression plasmids the coding sequences of human TAAR 1 were amplified from genomic DNA essentially as described by Lindemann et al.[14]. The Expand High Fidelity PCR System (Roche Diagnostics) was used with 1.5 mM Mg^2+ and purified PCR products were cloned into pCR2.1-TOPO cloning vector (Invitrogen) following the instructions of the manufacturer. PCR products were subcloned into the pIRESneo2 vector (BD Clontech, Palo Alto, Calif.), and expression vectors were sequence verified before introduction in cell lines.
HEK293 cells (ATCC # CRL-1573) were cultured essentially as described by Lindemann et al. (2005). For the generation of stably transfected cell lines HEK293 cells were transfected with the pIRESneo2 expression plasmids containing the TAAR coding sequences (described above) with Lipofectamine 2000 (Invitrogen) according to the instructions of the manufacturer, and 24 hrs post transfection the culture medium was supplemented with 1 mg/ml G418 (Sigma, Buchs, Switzerland). After a culture period of about 10 d clones were isolated, expanded and tested for responsiveness to trace amines (all compounds purchased from Sigma) with the cAMP Biotrak Enzyme immunoassay (EIA) System (Amersham) following the non-acetylation EIA procedure provided by the manufacturer.
cAMP measurements were performed as described previously (Revel et al., Proc. Natl. Acad. Sci. USA 2011, 108, 8485-8490). In brief, cells that expressed human TAAR1 were plated on 96-well plates (BIOCOAT 6640; Becton Dickinson, Allschwil, Switzerland) and incubated for 20 h at 37° C. Prior to stimulation of the cells with a broad concentration range of agonists for 30 min at 37° C., the cells were washed with PBS and preincubated with PBS that contained 1 mM 3-isobutyl-1-methylxanthine for 10 min at 37° C. and 5% CO2. Stimulation with 0.2% DMSO was set as the basal level, and the effect of 30 μM β-PEA was set as the maximal response. Subsequently, the cells were lysed, and cAMP assays were performed according to the manufacturer's instructions (cAMP kit; Upstate/Millipore, Schaffhausen, Switzerland). Finally, the plates were read with a luminometer (1420 Multilabel counter; PerkinElmer, Schwerzenbach, Switzerland), and the amount of cAMP was calculated. The results were obtained from at least three independent experiments. Experiments were run in duplicate or triplicate. EC50 values are presented as mean ±standard deviation (in μM).

[1] = estimated based on the IC50 value
[2] = human, CHO cells stably expressing hERG
[3] = human, CHO cells stably expressing hERG, pH 7.4, estimated based on the IC50 value

human TAAR1, sequence (Q96RJ0 whole entry): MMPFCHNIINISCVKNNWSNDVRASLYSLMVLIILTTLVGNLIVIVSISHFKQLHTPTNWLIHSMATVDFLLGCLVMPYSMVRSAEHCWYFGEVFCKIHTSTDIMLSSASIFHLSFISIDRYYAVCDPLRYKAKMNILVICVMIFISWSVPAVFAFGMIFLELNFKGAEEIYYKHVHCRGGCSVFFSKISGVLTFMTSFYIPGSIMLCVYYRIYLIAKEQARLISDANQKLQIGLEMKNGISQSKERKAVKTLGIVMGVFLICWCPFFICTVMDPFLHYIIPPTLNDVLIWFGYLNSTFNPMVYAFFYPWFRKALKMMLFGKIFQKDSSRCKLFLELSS
human DAT, sequence (Q01959 whole entry): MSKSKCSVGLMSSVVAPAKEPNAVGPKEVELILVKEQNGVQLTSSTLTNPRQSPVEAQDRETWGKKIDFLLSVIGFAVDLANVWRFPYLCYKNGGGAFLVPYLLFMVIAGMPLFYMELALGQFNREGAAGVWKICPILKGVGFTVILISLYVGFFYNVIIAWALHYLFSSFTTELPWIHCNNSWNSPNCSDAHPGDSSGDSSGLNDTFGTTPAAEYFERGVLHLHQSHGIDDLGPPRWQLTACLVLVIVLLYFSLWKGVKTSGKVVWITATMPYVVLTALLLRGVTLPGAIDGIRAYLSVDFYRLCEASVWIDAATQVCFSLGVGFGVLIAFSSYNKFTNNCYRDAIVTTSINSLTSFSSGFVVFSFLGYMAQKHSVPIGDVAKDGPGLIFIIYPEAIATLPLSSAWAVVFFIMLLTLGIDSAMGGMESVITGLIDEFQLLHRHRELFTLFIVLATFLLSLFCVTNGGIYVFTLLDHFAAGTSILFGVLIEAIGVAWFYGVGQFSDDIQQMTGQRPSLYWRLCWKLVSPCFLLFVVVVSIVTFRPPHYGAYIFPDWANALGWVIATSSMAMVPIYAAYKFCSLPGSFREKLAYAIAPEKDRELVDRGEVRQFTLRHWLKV
hERG potassium channel, sequence (Q12809 whole entry): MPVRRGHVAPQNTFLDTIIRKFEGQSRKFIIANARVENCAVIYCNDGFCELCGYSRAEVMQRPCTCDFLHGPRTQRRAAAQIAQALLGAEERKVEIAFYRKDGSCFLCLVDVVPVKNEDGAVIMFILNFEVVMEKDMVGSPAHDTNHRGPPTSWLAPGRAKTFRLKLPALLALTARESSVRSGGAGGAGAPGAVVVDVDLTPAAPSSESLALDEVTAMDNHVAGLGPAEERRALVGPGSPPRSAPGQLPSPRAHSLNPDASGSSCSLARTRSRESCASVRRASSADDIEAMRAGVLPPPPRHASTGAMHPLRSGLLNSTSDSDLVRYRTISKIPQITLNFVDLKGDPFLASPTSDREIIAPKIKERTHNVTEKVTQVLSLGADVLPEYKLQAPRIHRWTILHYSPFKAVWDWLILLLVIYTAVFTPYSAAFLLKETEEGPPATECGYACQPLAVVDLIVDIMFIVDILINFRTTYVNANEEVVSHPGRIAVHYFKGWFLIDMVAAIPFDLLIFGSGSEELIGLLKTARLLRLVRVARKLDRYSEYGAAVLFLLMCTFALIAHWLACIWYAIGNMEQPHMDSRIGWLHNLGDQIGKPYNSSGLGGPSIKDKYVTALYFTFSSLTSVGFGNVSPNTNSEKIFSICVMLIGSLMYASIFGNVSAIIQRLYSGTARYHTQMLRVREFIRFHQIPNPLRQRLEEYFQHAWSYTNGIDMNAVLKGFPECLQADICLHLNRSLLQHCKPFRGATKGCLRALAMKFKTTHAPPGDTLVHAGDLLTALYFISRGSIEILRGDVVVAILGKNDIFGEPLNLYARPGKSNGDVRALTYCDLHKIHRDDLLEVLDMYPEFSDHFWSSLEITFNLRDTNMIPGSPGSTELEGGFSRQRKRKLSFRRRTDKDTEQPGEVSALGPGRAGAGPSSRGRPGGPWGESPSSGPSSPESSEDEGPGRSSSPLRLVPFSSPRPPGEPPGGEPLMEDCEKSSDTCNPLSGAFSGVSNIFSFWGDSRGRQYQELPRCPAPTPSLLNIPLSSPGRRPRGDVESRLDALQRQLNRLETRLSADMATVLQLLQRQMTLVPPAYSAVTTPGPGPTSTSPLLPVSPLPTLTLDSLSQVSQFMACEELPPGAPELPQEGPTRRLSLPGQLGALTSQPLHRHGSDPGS

| Compound | Ratio hERG IC20/hTAAR1 EC50 (hERG potassium channel) | IC20 (hERG potassium channel; [1]) [µM] | selectivity ratio (hERG potassium channel; [2]) | IC50 (hERG potassium channel) [µM] | Ratio DAT Ki/hTAAR1 EC50 (human DAT) | Ki (human DAT) [µM] | hTAAR1 efficacy* (human TAAR1) [%] | EC50 (human TAAR1; listed as example 10) [µM] | EC50 (human TAAR1) [µM] | IC20 (hERG potassium channel; [3]) [µM] | DAT selectivity ratio versus hTAAR1 EC50 (human DAT) [fold] | EC50 (human TAAR1; listed as example 12) [µM] | EC50 (human TAAR1; listed as example 13) [µM] | EC50 (human TAAR1; listed as example 14) [µM] | EC50 (human TAAR1; listed as example 15) [µM] | EC50 (human TAAR1; listed as example 17) [µM] | EC50 (human TAAR1; listed as example 18) [µM] |
| --- | --- | --- | --- | --- | --- | --- | --- | --- | --- | --- | --- | --- | --- | --- | --- | --- | --- |
| N#Cc1ccc(C(=O)Nc2ccc([C@H]3CNCCO3)cc2)cn1 [Example 10, 6-Cyano-N-[4-[(2S)-morpholin-2-yl]phenyl]pyridine-3-carboxamide] | 31 | 5.78 | 31 | 31.7 | 62 | 11.3 | 38 | 0.184 | 0.184 | – | – | – | – | – | – | – | – |
| O=C(Nc1ccc([C@H]2CNCCO2)cc1)c1ccc(Cl)cn1 [Example 12, 5-Chloro-N-[4-[(2S)-morpholin-2-yl]phenyl]pyridine-2-carboxamide] | 15 | – | 15 | 14.3 | 8 | 1.78 | 40 | – | 0.212 | 3.21 | 8 | 0.212 | – | – | – | – | – |
| O=C(Nc1ccc([C@H]2CNCCO2)cc1)c1cncc(Cl)c1 [Example 13, 5-Chloro-N-[4-[(2S)-morpholin-2-yl]phenyl]pyridine-3-carboxamide] | 23 | 9.14 | 23 | 66 | 3 | 1.31 | 37 | – | 0.405 | – | 3 | – | 0.405 | – | – | – | – |
| Cc1cc(C(=O)Nc2ccc([C@H]3CNCCO3)cc2)cc(Cl)n1 [Example 14, 2-Chloro-6-methyl-N-[4-[(2S)-morpholin-2-yl]phenyl]pyridine-4-carboxamide] | 48 | – | – | 73.2 | 16 | 7.32 | 53 | – | 0.447 | 21.6 | 16 | – | – | 0.447 | – | – | – |
| O=C(Nc1ccc([C@H]2CNCCO2)cc1)c1coc(-c2ccccc2)n1 [Example 15, N-[4-[(2S)-Morpholin-2-yl]phenyl]-2-phenyl-1,3-oxazole-4-carboxamide] | 4 | 2.4 | 4 | 9.65 | >39 | > 26.1 | 35 | – | 0.663 | – | – | – | – | – | 0.663 | – | – |
| O=C(Nc1ccc([C@H]2CNCCO2)cc1)c1csc(-c2ccccc2)n1 [Example 16, N-[4-[(2S)-Morpholin-2-yl]phenyl]-2-phenyl-1,3-thiazole-4-carboxamide] | 5 | 3.35 | 5 | 8.98 | 24 | 16.2 | 35 | – | 0.666 | – | – | – | – | – | – | – | – |
| Cc1cc(C(=O)Nc2ccc([C@H]3CNCCO3)cc2)ccn1 [Example 17, 2-Methyl-N-[4-[(2S)-morpholin-2-yl]phenyl]pyridine-4-carboxamide] | 193 | – | – | 518 | 15 | 10.3 | 45 | – | 0.673 | 130 | 15 | – | – | – | – | 0.673 | – |
| Cc1cc(C(=O)Nc2ccc([C@H]3CNCCO3)cc2)cc(C)n1 [Example 18, 2,6-Dimethyl-N-[4-[(2S)-morpholin-2-yl]phenyl]pyridine-4-carboxamide] | 177 | – | – | 712 | >32 | > 26.1 | 63 | – | 0.827 | 147 | – | – | – | – | – | – | 0.827 |
